Data on eleven molecules can be found in patent US12275726B2, “Aurora kinase inhibitors and use thereof” (WIGEN BIOMEDICINE TECHNOLOGY (SHANGHAI) CO., LTD., priority 2019, dated 2025).

In test [1] the target is Aurora-B kinase (Homo sapiens, UniProt Q96GD4). The test is described as follows: Caliper Mobility Shift assay for inhibitory activity against aurora kinase (Aurora-B). The format is biochemical. The settings on record: FAM-labeled polypeptide substrate, 25° C. As to the method: (§1) The compounds were each subjected to gradient dilution from 10 μM to obtain a total of 10 concentrations. After the enzyme and kinase reaction solution (20 mM HEPES, pH 7.5, 0.01% Triton X-100) were mixed, the gradiently diluted compound was added. The mixture was incubate at room temperature for 10 min to allow the compound and enzyme to bind well. Then, FAM-labeled polypeptide was added as a substrate to carry out a kinase reaction at 25° C., and after a certain time, a stop solution was added.

For test [2], the system named is human small cell lung cancer H69 cells. Nature of the test: Anti-proliferation activity against H69 cells (ATP content, 72 h). The test is classed as cell-based. As to the method:
Tumor cells (human small cell lung cancer H69 cells) in logarithmic growth phase were seeded into a 384-well culture plate at 4×10^3 cells per well, 50 μL of medium was added to each well, and the mixtures were cultured overnight in a 37° C./5% CO2 incubator. After the cells adhered to the wall, the test compounds and the positive control drug at proper concentrations were each added, and five samples with different concentrations were prepared. A blank group was taken as a negative control group, and the resulting mixtures were cultured in an incubator for 72 h. 50 μL of CTL plus was then added to each well, and the number of cells was evaluated by measuring ATP content in the cells.

Test [3] deals with T1, Aurora-A kinase (Homo sapiens, UniProt O14965).
T1 sequence (O14965 1-403): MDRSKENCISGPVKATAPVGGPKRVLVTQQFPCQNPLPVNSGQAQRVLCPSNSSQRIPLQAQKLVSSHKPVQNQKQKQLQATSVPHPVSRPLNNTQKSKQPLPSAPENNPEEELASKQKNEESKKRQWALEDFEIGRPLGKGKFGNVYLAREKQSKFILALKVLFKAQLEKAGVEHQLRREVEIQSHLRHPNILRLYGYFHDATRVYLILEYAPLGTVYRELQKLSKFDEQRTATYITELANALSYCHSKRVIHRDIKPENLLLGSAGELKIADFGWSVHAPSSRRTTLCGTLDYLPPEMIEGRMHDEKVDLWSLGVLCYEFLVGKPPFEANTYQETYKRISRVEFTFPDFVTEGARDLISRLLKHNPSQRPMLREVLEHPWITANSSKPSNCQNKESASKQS
The test is described as follows: Caliper Mobility Shift assay for inhibitory activity against aurora kinase (Aurora-A). The settings on record: FAM-labeled polypeptide substrate, 25° C. The format is biochemical. As to the method:
as §1

Test [4] concerns Human lung cancer H69 cells graft tumors. Nature of the test: Anti-tumor activity in nude mice bearing H69 graft tumors. The format is in vivo. The conditions noted are these: for in vivo anti-tumor activity compared with the positive control LY-3295668: 20 mg/kg bid*21, H69 graft tumors in nude mice, statement in words; for Anti-tumor effect: 20 mg/kg, bid*21, intragastric, suspension in 0.5% CMC-Na, NCI-H69 graft tumors in nude mice. Here is the method:
1×10^7 H69 cells were injected into the right dorsal side of each nude mouse, and the animals were randomly grouped for administration after tumors grew to 150 mm^3. […] On Tuesday and Thursday each week, tumor volumes and body weight of mice were measured, and the nude mice were sacrificed on day 21 of administration.

One may read the IC50 as the point on the concentration scale where inhibition reaches its midpoint.

Read-outs that look alike come from different tables or passages of the source.

Chain of Aurora-B kinase (Q96GD4 whole entry): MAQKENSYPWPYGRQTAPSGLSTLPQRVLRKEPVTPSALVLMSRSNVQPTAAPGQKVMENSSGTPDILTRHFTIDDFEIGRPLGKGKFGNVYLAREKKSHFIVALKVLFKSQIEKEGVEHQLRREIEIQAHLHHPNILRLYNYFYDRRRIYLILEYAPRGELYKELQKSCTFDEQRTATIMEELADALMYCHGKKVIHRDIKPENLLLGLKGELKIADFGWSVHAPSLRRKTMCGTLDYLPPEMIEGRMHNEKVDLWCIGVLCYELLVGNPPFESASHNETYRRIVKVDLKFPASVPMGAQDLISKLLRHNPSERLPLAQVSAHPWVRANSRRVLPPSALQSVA

In the case of `COCC1CC(Cc2nc(Nc3ncc(C)s3)ccc2F)(C(=O)O)CCN1Cc1cccc(Cl)c1F` (centres unmarked) [Compound 23, 1-(3-chloro-2-fluorobenzyl)-4-((3-fluoro-6-(5-methylthiazol-2-ylamino)pyridin-2-yl)methyl)-2-(methoxymethyl)piperidine-4-carboxylic acid], the IC50 is 2470 nM in test [1]; 58 nM in test [2] (Homo sapiens, NCI-H69, 72 h); 0.57 nM in test [3].
For `Cc1cnc(Nc2ccc(F)c(CC3(C(=O)O)CCN(Cc4cccc(Cl)c4F)C(C(F)(F)F)C3)n2)s1` (centres unmarked) [Compound 13, 1-(3-chloro-2-fluorobenzyl)-4-((3-fluoro-6-(5-methylthiazol-2-ylamino)pyridin-2-yl)methyl)-2-(trifluoromethyl)piperidine-4-carboxylic acid], in that order: 113 nM, 590 nM and 0.64 nM.
As to `O=C(O)C1(Cc2nc(Nc3nccs3)ccc2F)CCN(Cc2cccc(Cl)c2F)C(C(F)(F)F)C1` (centres unmarked) [Compound 1, 1-(3-chloro-2-fluorobenzyl)-4-((3-fluoro-6-(thiazol-2-ylamino)pyridin-2-yl)methyl)-2-(trifluoromethyl)piperidine-4-carboxylic acid], the IC50 in test [1] amounted to 148 nM; in test [2] (Homo sapiens, NCI-H69, 72 h) it was 11 nM; in test [3], 0.53 nM. Besides, the “in vivo anti-tumor activity compared with the positive control LY-3295668” value in test [4] is given as “significantly increased in vivo anti-tumor activity”. For the same molecule, the Anti-tumor effect in test [4] is given as 29% shrinking.
For `COCC1CC(Cc2nc(Nc3nccs3)ccc2F)(C(=O)O)CCN1Cc1cccc(Cl)c1F` (centres unmarked) [Compound 6, 1-(3-chloro-2-fluorobenzyl)-4-((3-fluoro-6-(thiazol-2-ylamino)pyridin-2-yl)methyl)-2-(methoxymethyl)piperidine-4-carboxylic acid], in that order: 78 nM, 49 nM, 0.57 nM, “significantly increased in vivo anti-tumor activity” and 30% shrinking.
For the molecule `Cc1cc(Nc2ccc(F)c(CC3(C(=O)O)CCN(Cc4cccc(Cl)c4F)C(C(F)(F)F)C3)n2)n[nH]1` (centres unmarked) [Compound 15, 1-(3-chloro-2-fluorobenzyl)-4-((3-fluoro-6-((5-methyl-1H-pyrazol-3-yl)amino)pyridin-2-yl)methyl)-2-(trifluoromethyl)piperidine-4-carboxylic acid], the IC50 is 1490 nM in test [1]; 770 nM in test [2] (Homo sapiens, NCI-H69, 72 h); 0.62 nM in test [3].
In the case of `CCOCC1CC(Cc2nc(Nc3nccs3)ccc2F)(C(=O)O)CCN1Cc1cccc(Cl)c1F` (centres unmarked) [Compound 7, 1-(3-chloro-2-fluorobenzyl)-2-(ethoxymethyl)-4-((3-fluoro-6-(thiazol-2-ylamino)pyridin-2-yl)methyl)piperidine-4-carboxylic acid], the half-inhibitory concentration (IC50) in test [1] was determined as 286 nM; in test [2] (Homo sapiens, NCI-H69, 72 h) it was 52 nM; in test [3], 0.74 nM.
Regarding `O=C(O)C1(Cc2nc(Nc3nccs3)ccc2F)CCN(Cc2cccc(Cl)c2F)C(CF)C1` (centres unmarked) [Compound 11, 1-(3-chloro-2-fluorobenzyl)-4-((3-fluoro-6-(thiazol-2-ylamino)pyridin-2-yl)methyl)-2-(fluoromethyl)piperidine-4-carboxylic acid], the IC50 in test [1] was 128 nM; in test [2] (Homo sapiens, NCI-H69, 72 h), 19 nM; in test [3], 2.4 nM.
For `CCC1CC(Cc2nc(Nc3nccs3)ccc2F)(C(=O)O)CCN1Cc1cccc(Cl)c1F` (centres unmarked) [Compound 29, 1-(3-chloro-2-fluorobenzyl)-2-ethyl-4-((3-fluoro-6-(thiazol-2-ylamino)pyridin-2-yl)methyl)piperidine-4-carboxylic acid] the same measures were 90 nM, 24 nM and 1.3 nM.
For `CCC1CC(Cc2nc(Nc3cc(C)[nH]n3)ccc2F)(C(=O)O)CCN1Cc1cccc(Cl)c1F` (centres unmarked) [Compound 19, 1-(3-chloro-2-fluorobenzyl)-2-ethyl-4-((3-fluoro-6-((5-methyl-1H-pyrazol-3-yl)amino)pyridin-2-yl)methyl)piperidine-4-carboxylic acid] the same measures were > 3000 nM, 219 nM and 3.1 nM.
Take `CCC1CC(Cc2nc(Nc3nccs3)ccc2F)(C(=O)O)CCN1Cc1cccc(Cl)c1F` (centres unmarked) [Compound 5, 1-(3-chloro-2-fluorobenzyl)-2-ethyl-4-((3-fluoro-6-(thiazol-2-ylamino)pyridin-2-yl)methyl)piperidine-4-carboxylic acid]: the results for the IC50 in test [1], in test [2] and in test [3] were 140 nM, 33 nM and 0.82 nM, respectively. This molecule also yielded an Anti-tumor effect in test [4] of 9% shrinking.
`COCC1CC(Cc2nc(Nc3cc(C)[nH]n3)ccc2F)(C(=O)O)CCN1Cc1cccc(Cl)c1F` (centres unmarked) [Compound 25, 1-(3-chloro-2-fluorobenzyl)-4-((3-fluoro-6-((5-methyl-1H-pyrazol-3-yl)amino)pyridin-2-yl)methyl)-2-(methoxymethyl)piperidine-4-carboxylic acid]: the IC50 in test [1] is > 3000 nM; in test [2] (Homo sapiens, NCI-H69, 72 h) it was 98 nM; in test [3], 0.78 nM.
